From ChEMBL document CHEMBL1137557, “Geometry of GPPE binding to picrate and to the urokinase type plasminogen activator” (Bioorg Med Chem Lett, 2007)

Columns and labels:
[1] = molecular target: Urokinase-type plasminogen activator (Homo sapiens, UniProt P00749); test: Inhibition of uPA
Trypsin = Trypsin (Homo sapiens, UniProt P07477+P07478+P35030); test: Inhibition of trypsin; assay type: protein assay
[2] = molecular target: Tissue-type plasminogen activator (Homo sapiens, UniProt P00750); test: Inhibition of tPA
Chain of Tissue-type plasminogen activator (P00750 whole entry): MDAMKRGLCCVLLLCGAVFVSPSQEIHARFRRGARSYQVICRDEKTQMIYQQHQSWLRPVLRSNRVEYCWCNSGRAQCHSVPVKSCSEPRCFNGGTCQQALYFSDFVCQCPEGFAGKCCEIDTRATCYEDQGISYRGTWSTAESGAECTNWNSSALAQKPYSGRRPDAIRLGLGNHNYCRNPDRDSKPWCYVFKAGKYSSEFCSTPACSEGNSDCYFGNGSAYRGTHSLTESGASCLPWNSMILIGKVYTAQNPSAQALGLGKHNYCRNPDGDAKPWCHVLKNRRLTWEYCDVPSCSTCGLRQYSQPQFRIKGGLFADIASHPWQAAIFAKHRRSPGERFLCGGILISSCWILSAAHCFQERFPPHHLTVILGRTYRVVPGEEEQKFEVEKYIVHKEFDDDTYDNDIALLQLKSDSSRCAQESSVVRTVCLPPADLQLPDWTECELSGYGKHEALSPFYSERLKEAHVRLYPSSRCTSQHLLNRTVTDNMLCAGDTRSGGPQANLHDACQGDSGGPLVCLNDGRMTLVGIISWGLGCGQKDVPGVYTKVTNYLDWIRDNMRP

Compound: N=C(N)Nc1ccc(CC(=O)c2ccccc2)cc1
- Ki [1]: 34 µM
- Ki (Trypsin): 160 µM
- Ki [2]: > 1000 µM
